# Patent publication US4657902A, “Therapeutic use of tin mesoporphyrin” (The Rockefeller University, priority 1985, dated 1987)
# Read-outs that look alike come from different tables or passages of the source.
# Experiments:
# [1] = target: T1, heme oxygenase (Rattus norvegicus, UniProt P06762); experiment: rat spleen heme oxygenase incubation, in vitro inhibition; assay type: biochemical; settings: for Km: normal Km 3.64 μM, read-out: Km for degradation of heme by heme oxygenase to bile pigment
# T1 construct: rat spleen - heme oxygenase incubation mixtures; from tissue; host or cells: rat spleen
# T1 sequence (P06762 1-289): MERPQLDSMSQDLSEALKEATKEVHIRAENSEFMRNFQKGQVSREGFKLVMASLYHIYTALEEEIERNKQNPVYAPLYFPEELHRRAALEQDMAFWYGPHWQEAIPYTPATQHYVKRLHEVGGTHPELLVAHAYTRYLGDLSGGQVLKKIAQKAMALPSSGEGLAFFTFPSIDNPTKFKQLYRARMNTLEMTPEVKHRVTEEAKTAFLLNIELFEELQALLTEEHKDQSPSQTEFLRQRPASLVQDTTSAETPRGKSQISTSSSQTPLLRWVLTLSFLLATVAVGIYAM
# [2] = tested on: serum bilirubin; experiment: experimental postnatal hyperbilirubinemia produced by ALA in 7 day old rats, serum bilirubin; assay type: in vivo, rat; settings: single dose 1 μmol/kg body weight at 0 time, 24 hours
# Method: (§1) The efficacy of SnMP for controlling hyperbilirubinemia was also examined in a model of experimental postantal hyperbilirubinemia in the rat utilizing the heme precursor […] (ALA) to produce jaundice 7 days after birth (Drummond & Kappas, J. Clin. Invest., 74, 142-149, 1984). AlA (50 μmol/100g body weight) administered to suckling 7 day old neonates at 0,4 and 8 hours produced an approximately 3 fold increase in serum bilirubin levels 24 hours after the initial injection (FIG. 3). […] Heme oxygenase was assayed as earlier described (J. Biol. Chem., 253, 2321-2326, 1978).
# [3] = tested on: hepatic heme oxygenase; experiment: hepatic heme oxygenase activity in ALA-treated 7 day old rats; assay type: in vivo, rat; settings: single dose 1 μmol/kg body weight
# Method: as §1
# [4] = tested on: liver tryptophan pyrrolase; experiment: liver tryptophan pyrrolase activity and heme saturation after parenteral administration to rats; assay type: in vivo, rat; settings: 1 μmol/kg s.c.
# Method: With adults afflicted with sickle cell anemia or another condition resulting in increased bilirubin concentration, the dosage unit is normally smaller since in all but the most acute situations, the bilirubin concentration is not as high as in neonates. The standard dosage with adults will normally be from about 2 to 5 mg/kg of body weight. […] In this study SnMP was administered subcutaneously at a dosage level of 1 μmol/kg of body weight to male Sprague-Dawley rats (180-200g). Control animals received an equivalent volume of aqueous isotonic saline. Tissue preparation of liver fractions for enzymic assays were conducted as described by Drummond and Kappas. Proc. Natl. Acad. Sci. USA. 78:6466-6470 (1981). Tryptophan pyrrolase activity was determined both in the absence (holoenzyme) and the presence (total enzyme) of added heme ([…]). The latter enzyme activity was calculated from the linear phase of kynurenine formation. The percent heme saturation for tryptophan pyrrolase was expressed as the ratio of holoenzyme to total enzyme (×100 ). Each data point in the figure represents the mean value of determinations in 3 to 6 animals.
# [5] = biliary output of bilirubin, heme and iron in rats; assay type: in vivo, rat
# Method: It has been observed that when heme is administered alone to animals such as rats, a large output of biliary bilirubin (mono- and diglucuronide forms) occurs, with a slight output of excess heme.
# It is therefore clear that the administration of SnMP to mammals increases the biliary excretion of excess heme and thus of its contained iron atom as well. They make it clear also that the excess heme which accumulates when the rate of bilirubin production is decreased by the administration of SnMP is excreted in the bile and not stored in tissues. More particularly, they make it clear that the administration of SnMP to mammals suffering acute or chronic excess of heme or iron will increase the rate at which such heme or iron will be excreted into the intestinal contents.
# [6] = tested on: serum bilirubin; experiment: serum bilirubin in newborn rats after a single subcutaneous injection at birth
substance,measurement,setting,value
tin mesoporphyrin [SnMP],inhibition of heme oxygenase activity,[1]; 0.025 and 0.05 μM SnMP,marked competitive inhibition
same,Km,[1]; SnMP 0.025 μM,11.1 µM
same,Km,[1]; SnMP 0.05 μM,18.2 µM
same,in vitro ability to inhibit the production of bilirubin relative to SnPP,[1]; compared with SnPP,just about as effective in this regard as SnPP
same,Ki,"[1]; rat spleen heme oxygenase, read-out: inhibition constant Ki for the inhibition of the conversion of heme to bilirubin by heme oxygenase",13 nM
same,effect on the increase in serum bilirubin produced by ALA,[2],substantially diminished
same,effect on the increase in hepatic heme oxygenase activity associated with ALA administration,[3],prevented the increase
same,percent heme saturation of tryptophan pyrrolase,"[4]; male Sprague-Dawley rats, in two hours",approximately 80%
same,duration of the initial high tryptophan pyrrolase activity relative to SnPP,"[4]; rats, compared with SnPP",maintained for a more extended period of time
same,output of biliary iron,[5]; bile duct cannulated rats,increase in output of biliary iron
same,biliary bilirubin output,"[5]; rats, SnMP administered with heme",the bilirubin peak will decline
same,effect on the increase in serum bilirubin 24 hours after birth,[6]; 1 μmol/kg body weight s.c. once at birth,entirely prevented
same,effectiveness in vivo in lowering plasma bilirubin / suppressing neonatal jaundice relative to SnPP,[6]; compared with SnPP,5-10 times
